Laboratory results taken from ChEMBL document CHEMBL3407442, “Synthesis and biological evaluation of α-aryl-α-tetralone derivatives as hepatitis C virus inhibitors” (Eur J Med Chem, 2015).

Key:
Hepatitis C virus [1] = experiment: Antiviral activity against HCV genotype 2a infected in human Huh7.5-FGR-JC1-Rluc2A replicon cells assessed as inhibition of viral viral RNA replication incubated for 48 hrs by luciferase reporter gene assay; assay type: functional, cell-based, Hepacivirus hominis; conditions: Huh-7, 48 h
[2] = Cytotoxicity against human Huh7.5 cells by MTS assay; assay type: cell-based, Huh-7
[3] = Selectivity index, ratio of CC50 for human Huh7.5 cells to EC50 for HCV genotype 1b infected in human Huh7/Rep-Feo1b replicon cells; set-up: species or system Huh-7
[4] = Selectivity index, ratio of CC50 for human Huh7.5 cells to EC50 for HCV genotype 2a infected in human Huh7.5-FGR-JC1-Rluc2A replicon cells; set-up: species or system Huh-7
Hepatitis C virus [5] = experiment: Antiviral activity against HCV genotype 1b infected in human Huh7/Rep-Feo1b replicon cells assessed as inhibition of viral viral RNA replication at 50 uM incubated for 48 hrs by luciferase reporter gene assay; assay type: functional, Hepacivirus hominis; conditions: Huh-7, 48 h
Hepatitis C virus [6] = experiment: Antiviral activity against HCV genotype 2a infected in human Huh7.5-FGR-JC1-Rluc2A replicon cells assessed as inhibition of viral viral RNA replication at 50 uM incubated for 48 hrs by luciferase reporter gene assay; assay type: functional, Hepacivirus hominis; conditions: Huh-7, 48 h
Hepatitis C virus [7] = experiment: Antiviral activity against HCV genotype 1b infected in human Huh7/Rep-Feo1b replicon cells assessed as inhibition of viral viral RNA replication incubated for 48 hrs by luciferase reporter gene assay; assay type: functional, cell-based, Hepacivirus hominis; conditions: Huh-7, 48 h

| SMILES | EC50 (Hepatitis C virus [1]) [µM] | CC50 [2] [µM] | Ratio CC50/EC50 [3] | Ratio CC50/EC50 [4] | inhibition at 50 µM (Hepatitis C virus [5]) [%] | inhibition at 50 µM (Hepatitis C virus [6]) [%] | EC50 (Hepatitis C virus [7]) [µM] |
| --- | --- | --- | --- | --- | --- | --- | --- |
| COc1ccc(O)c2c1C(=O)C(c1ccccc1OCc1ccccc1)CC2 (centres undefined) | 4.4 | < 50 | <8 | <11.3 | 99.1 | 98 | 6.21 |
| COc1ccccc1C1CCc2c(O)ccc(OC)c2C1=O (centres undefined) | – | > 200 | – | – | 41.2 | 44 | – |
| COc1ccc(C2CCc3c(OC)ccc(OC)c3C2=O)c(OC)c1 (centres undefined) | 21.5 | < 50 | <6 | <2.3 | 73.8 | 86.2 | 8.2 |
| COc1ccc2c(c1)CCC(c1ccccc1OC)C2=O (centres undefined) | 1.5 | 152 | 14.3 | 101.4 | 86.4 | 88.8 | 10.6 |
| COc1ccc(C2CCc3c(OC)cccc3C2=O)c(OC)c1 (centres undefined) | 3.2 | 104 | 8.2 | 32.6 | 96.5 | 99.5 | 12.8 |
| COc1cccc2c1CCC(c1ccccc1O)C2=O (centres undefined) | 10.8 | 111 | – | 10.2 | 26.1 | 86 | – |
| COc1ccccc1C1CCc2c(OC)cccc2C1=O (centres undefined) | 10.8 | > 200 | >4.1 | >18.5 | 51.7 | 86.6 | 48.5 |
| COc1ccccc1C1CCc2c(OC)ccc(OC)c2C1=O (centres undefined) | 6.8 | > 200 | >24.9 | >29.5 | 80.6 | 88.8 | 8 |
| COc1cc2c(cc1OC)C(=O)C(c1ccccc1OC)CC2 (centres undefined) | 4.8 | 126 | 2.9 | 26.2 | 60.2 | 79.9 | 42.5 |
| COc1ccc(C2CCc3ccccc3C2=O)c(OC)c1 (centres undefined) | 11 | 63.6 | 1.4 | 5.7 | 55.6 | 83.9 | 44.3 |
| COc1ccc2c(c1)C(=O)C(c1ccccc1OC)CC2 (centres undefined) | 3.6 | 111 | 3.7 | 30.8 | 85.4 | 91.8 | 29.5 |
| COc1ccc(C2CCc3ccc(OC)cc3C2=O)c(OC)c1 (centres undefined) | 15 | < 50 | <3.5 | <3.3 | 95.2 | 97.6 | 14.3 |
| COc1ccccc1C1CCc2ccccc2C1=O (centres undefined) | 14.3 | 117 | 2.3 | 8.2 | 48.4 | 84.4 | 50.1 |
| COc1ccc(C2CCc3cc(OC)c(OC)cc3C2=O)c(OC)c1 (centres undefined) | 4.3 | > 200 | > 111 | >46.1 | 89.6 | 86.8 | 1.8 |
| COc1ccc2c(c1)CCC(c1ccc(OC)cc1OC)C2=O (centres undefined) | 3.3 | < 50 | <6.6 | <15.3 | 89.5 | 93.4 | 7.5 |
